Measured values: patent US20210290597A1, “METHOD OF TREATING A CONDITION ASSOCIATED WITH NEURODEGENERATION USING INHIBITORS OF OAT3” (Neuropore Therapies, Inc., priority 2018, published 2021)
Where two headings read alike, the source gives them in different places.

Columns and labels:
[1] = target: T1, OAT3 (Homo sapiens, UniProt Q8TCC7); experiment: Further OAT3 uptake inhibition assay (Table 2); assay type: cell-based; conditions: human, MDCK-II cells expressing human OAT3, probe 10 μM PAH (p-aminohippurate); compound 1 μM; PAH 10 μM; mean and SD of triplicate
T1 construct: expressed in transfected cells; host or cells: MDCK-II
T1 sequence (Q8TCC7 1-542): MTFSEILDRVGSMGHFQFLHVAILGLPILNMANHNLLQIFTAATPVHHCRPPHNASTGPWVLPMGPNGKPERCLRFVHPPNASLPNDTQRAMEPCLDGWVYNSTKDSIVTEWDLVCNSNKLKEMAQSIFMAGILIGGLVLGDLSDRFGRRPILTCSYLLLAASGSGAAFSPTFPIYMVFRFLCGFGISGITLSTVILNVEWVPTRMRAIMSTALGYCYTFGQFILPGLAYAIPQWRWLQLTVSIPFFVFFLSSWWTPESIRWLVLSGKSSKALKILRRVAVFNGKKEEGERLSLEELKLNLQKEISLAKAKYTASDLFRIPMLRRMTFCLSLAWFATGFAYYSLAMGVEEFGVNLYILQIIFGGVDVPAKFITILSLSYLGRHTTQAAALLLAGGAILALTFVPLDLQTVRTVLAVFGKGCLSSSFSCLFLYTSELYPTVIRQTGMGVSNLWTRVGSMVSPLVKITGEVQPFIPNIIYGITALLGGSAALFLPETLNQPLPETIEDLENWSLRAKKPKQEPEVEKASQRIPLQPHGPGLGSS
Protocol: (§1) In a further assay, the effects of several other compounds (including compounds 2, 3, and 4) were assessed against OAT3. The assay was carried out using a similar procedure as described above, using para-aminohippurate (PAH) and estrone-3-sulfate (E3S) as the substrates for measuring OAT3-mediated transport. […] MDCK-II cells were grown in 96-well cell culture plates, and the cell plates are maintained at 37° C. in 5% CO2 atmosphere prior to initiation of the transport experiment. MDCK-II cells were maintained in DMEM with low glucose and 10% FBS. Cells passages up to 40 are seeded at 60K±10K cells/well on 96-well, transwell membrane plates approximately 24 hours before transfection. Transport assays were carried out approximately 48 hours after transfection. Radio-labeled para-aminohippurate ([3H]-PAH) and estrone-3-sulfate (E3S) were used as substrates for measuring OAT3-mediated transport, where the transport of the substrate was determined by radiometric detection. Probenecid was used as a reference inhibitor. Transport study samples were run in triplicate.
(§2) For uptake assays, the net transporter-mediated uptake rate (V) of the substrate by each SLC transporter was calculated as follows:
(§3) Transporter-mediated uptake rate(pmol/min/cm^2)=((Cellular accumulation in cells expressing the transporter)−(Mean cellular accumulation in control cells))/Incubation time.
(§4) Percent inhibition was calculated by dividing the transporter-mediated uptake rate in presence of the test article or the reference inhibitor by the transporter-mediated uptake rate in presence of vehicle control:
(§5) Percent inhibition=100−(100×(transporter-mediated uptake rate)with inhibitor/(transporter-mediated uptake rate)vehicle control)
(§6) For uptake assays, statistical analyses using an unpaired t test was performed between transporter-mediated uptake rate or ATP-dependent transport rate of probe substrate with vehicle control and the inhibitor. A p value of <0.05 was considered statistically significant.
(§7) Table 2 summarizes the inhibitory activity of these compounds against OAT3 in the uptake of probe substrate PAH (p-aminohippurate) or E3S (estrone-3-sulfate). The percent inhibition values were determined by testing compounds at a single concentration of 1 μM with a PAH concentration of 10 μM. Data represent the mean and standard deviation of triplicate samples. The IC50 values were calculated by means of a concentration response curve with a compound concentration range of 0.03-10 μM and a probe substrate concentration of 10 μM PAH or 0.1 μM E3S. The percent inhibition at the various concentrations was run in triplicate and the IC50 value was determined by non-linear regression using GraphPad Prism.

[2] = target: T2, human transporter OAT3 (Homo sapiens, UniProt Q8TCC7); experiment: Further OAT3 uptake inhibition assay (Table 2); assay type: cell-based; conditions: compound 0.03-10 μM
T2 construct: expressed in transfected cells; host or cells: MDCK-II
T2 sequence (Q8TCC7 1-542): T1 sequence (Q8TCC7 1-542)
Protocol: as §1, §2, §3, §4, §5, §6, §7

[3] = 0.1 μM E3S, read-out: OAT3 inhibition substrate = E3S (IC50)
[4] = 10 μM PAH, read-out: OAT3 inhibition substrate = PAH (IC50)

inhibition at 1 μM [1] | IC50 [2, 3] | IC50 [2, 4] | SMILES
48% | 1.9 µM | 1.36 µM | O=S(=O)(c1ccc(-n2cn[nH]c2=S)c(N2CCOCC2)c1)c1ccc(Cl)c(C(F)(F)F)c1 [Compound 2, 4-(4-((4-chloro-3-(trifluoromethyl)phenyl)sulfonyl)-2-morpholinophenyl)-2,4-dihydro-3H-1,2,4-triazole-3-thione]
33.1% | – | – | O=S(=O)(c1ccccc1)c1ccc(-n2cn[nH]c2=S)cc1 [Compound 3, 4-(4-(phenylsulfonyl)phenyl)-2,4-dihydro-3H-1,2,4-triazole-3-thione]
76.3% | – | – | O=S(=O)(c1ccc(Cl)cc1)c1ccc(-n2cn[nH]c2=S)cc1 [Compound 4, 4-(4-((4-chlorophenyl)sulfonyl)phenyl)-2,4-dihydro-3H-1,2,4-triazole-3-thione]
86.5% | – | – | Cc1cc(S(=O)(=O)c2ccc(-n3cn[nH]c3=S)cc2)ccc1Cl [Compound 5, 4-(4-((4-chloro-3-methylphenyl)sulfonyl)phenyl)-2,4-dihydro-3H-1,2,4-triazole-3-thione]
58.6% | – | – | O=S(=O)(c1ccc(-n2cn[nH]c2=S)cc1)c1cccc(C(F)(F)F)c1 [Compound 11, 4-(4-((3-(trifluoromethyl)phenyl)sulfonyl)phenyl)-2,4-dihydro-3H-1,2,4-triazole-3-thione]
48.4% | – | – | COc1cccc(S(=O)(=O)c2ccc(-n3cn[nH]c3=S)cc2)c1 [Compound 12, 4-(4-((3-methoxyphenyl)sulfonyl)phenyl)-2,4-dihydro-3H-1,2,4-triazole-3-thione]
60.1% | – | – | CN(C)c1cccc(S(=O)(=O)c2ccc(-n3cn[nH]c3=S)cc2)c1 [Compound 15, 4-(4-((3-(dimethylamino)phenyl)sulfonyl)phenyl)-2,4-dihydro-3H-1,2,4-triazole-3-thione]
43% | – | – | O=S(=O)(c1ccc(-n2cn[nH]c2=S)c(N2CCCCC2)c1)c1ccc(Cl)c(C(F)(F)F)c1 [Compound 19, 4-(4-((4-chloro-3-(trifluoromethyl)phenyl)sulfonyl)-2-(piperidin-1-yl)phenyl)-2,4-dihydro-3H-1,2,4-triazole-3-thione]
17.2% | – | – | CN1CCN(c2cc(S(=O)(=O)c3ccc(Cl)c(C(F)(F)F)c3)ccc2-n2cn[nH]c2=S)CC1 [Compound 20, 4-(4-((4-chloro-3-(trifluoromethyl)phenyl)sulfonyl)-2-(4-methylpiperazin-1-yl)phenyl)-2,4-dihydro-3H-1,2,4-triazole-3-thione]
48.2% | – | – | CCN(CC)c1cc(S(=O)(=O)c2ccc(Cl)c(C(F)(F)F)c2)ccc1-n1cn[nH]c1=S [Compound 21, 4-(4-((4-chloro-3-(trifluoromethyl)phenyl)sulfonyl)-2-(diethylamino)phenyl)-2,4-dihydro-3H-1,2,4-triazole-3-thione]
79.5% | – | – | CCOCCOc1cc(S(=O)(=O)c2ccc(Cl)c(C(F)(F)F)c2)ccc1-n1cn[nH]c1=S [Compound 22, 4-(4-((4-chloro-3-(trifluoromethyl)phenyl)sulfonyl)-2-(2-ethoxyethoxy)phenyl)-2,4-dihydro-3H-1,2,4-triazole-3-thione]
9.78% | 8.63 µM | 7.67 µM | CSc1nncn1-c1ccc(S(=O)(=O)c2ccc(Cl)c(C(F)(F)F)c2)cc1 [Compound 26, 4-(4-((4-chloro-3-(trifluoromethyl)phenyl)sulfonyl)phenyl)-3-(methylthio)-4H-1,2,4-triazole]
86.3% | – | – | FC(F)(F)c1cc(Oc2ccc(-n3cn[nH]c3=S)cc2)ccc1Cl [Compound 30, 4-(4-(4-chloro-3-(trifluoromethyl)phenoxy)phenyl)-2,4-dihydro-3H-1,2,4-triazole-3-thione]
-1.05% | – | – | O=S(=O)(c1ccc(-n2cc[nH]c2=S)cc1)c1ccc(Cl)c(C(F)(F)F)c1 [Compound 31, 1-(4-(4-chloro-3-(trifluoromethyl)phenylsulfonyl)phenyl)-1H-imidazole-2(3H)-thione]
-9.18% | – | – | O=c1[nH]ccn1-c1ccc(S(=O)(=O)c2ccc(Cl)c(C(F)(F)F)c2)cc1 [Compound 32, 1-(4-((4-chloro-3-(trifluoromethyl)phenyl)sulfonyl)phenyl)-1,3-dihydro-2H-imidazol-2-one]
94.1% | – | – | O=S(=O)(Nc1ccc(Cl)c(C(F)(F)F)c1)c1ccc(-n2cn[nH]c2=S)cc1 [Compound 33, N-(4-chloro-3-(trifluoromethyl)phenyl)-4-(5-thioxo-1H-1,2,4-triazol-4(5H)-yl)benzenesulfonamide]
– | > 30 µM | > 30 µM | CS(=O)(=O)N1CCN(Cc2nnc(Nc3ccc(S(=O)(=O)c4ccc(Cl)cc4)cc3)s2)CC1 [Compound X1]
– | > 30 µM | > 30 µM | Nc1ncc(-c2cc(N3CCOCC3)cc(S(=O)(=O)c3ccccc3)c2)cn1 [Compound X2]
